Legend:
[1] = test system: disease animal model of fibromyalgia; assay: Antagonism by 5-HT2C receptor antagonist SB242084 of the action of lorcaserin on reserpine-lowered muscle tenderness threshold; assay type: in vivo, Sprague-Dawley rats
Method: Thirty male Sprague-Dawley rats (Japan SLC) were used. […] The other 6 rats were not administered with reserpine and provided for the experiment as a healthy control. The drug efficacy was evaluated 5 days after the final administration of reserpine.
Twenty four reserpine-administered rats were divided into four groups (n=6/group), and the drug was administered to the respective groups in the following manner.
Group 1: 10% β cyclodextrin (vehicle of SB242084)+distilled water (vehicle of lorcaserin)
Group 2: 10% β cyclodextrin+lorcaserin at 3 mg/kg
Group 3: SB242084 at 0.1 mg/kg+lorcaserin at 3 mg/kg
Group 4: SB242084 at 1 mg/kg+lorcaserin at 3 mg/kg SB242084 or the vehicle thereof was administered by intraperitoneal administration, and lorcaserin or the vehicle thereof was orally administered. […] The muscle tenderness threshold was measured 60 minutes after lorcaserin or the vehicle thereof was administered. For the 6 healthy rats, only the muscle tenderness threshold was measured without administering the drug.
All measured values were indicated as an average±standard error. […] A significance level (P) less than 5% was determined as statistical significance (P<0.001 was indicated as ### in the drawing). […] A significance level (P) less than 5% was determined as statistical significance (P<0.001 was indicated as *** in the drawing).

[2] = test system: disease animal model of fibromyalgia; assay: Effect of test drug on lowering of muscle tenderness threshold induced by repeated reserpine administration; assay type: in vivo, Sprague-Dawley rats; settings: for effect on the lowering of the muscle tenderness threshold induced by reserpine: male rats; for statistical significance of the effect on muscle tenderness threshold vs vehicle: two way ANOVA and Bonferroni
Method: (§1) The muscle tenderness threshold was measured according to the method of Schafers et al (Schafers M et al, Pain, 104, 579-588, 2003). A pressure stimulus gradually increasing up to 250 g was applied to the gastrocnemius of the right rear foot of the rat. […] The measurement was performed for three times for each point in time, and the average thereof was taken as a measured value. The cutaneous nociception threshold was measured according to the method of Chaplan et al (Chaplan et al., J Neurosci Methods, 53, 55-63, 1994). The measurement was performed using a series of von Frey filaments differing in thickness, which made it possible to apply a constant pressure. The rats were adapted to a cage for measurement having a wire mesh bottom, and then von Frey filaments (0.42 g, 0.74 g, 1.2 g, 2.1 g, 3.5 g, 6.0 g, 9.3 g, and 15.8 g) were applied to the plantar surface of a right rear foot of the rat until the withdrawal response was caused in the right rear foot or until 6 seconds elapsed without the response. The von Frey filament was applied using an up and down method. That is, a filament having about a medium thickness was applied initially, and when the withdrawal response was observed, a filament having a thickness which is one level lower than the initial filament was applied, and when the response was not observed, a filament having a thickness which is one level higher than the initial filament was applied. The cutaneous nociception threshold at the respective points in time was calculated as a threshold (g) of a foot withdrawal response by using a calculation formula reported by Chaplan et al (Chaplan et al. described above). The influence of reserpine on the muscle tenderness threshold and the threshold of cutaneous nociception was examined according to the following protocol. 24 rats were used for male and female rats respectively. The muscle tenderness threshold and the cutaneous nociception threshold before the reserpine administration (base line) were measured, and then the rats were assigned to any of a vehicle (0.5% aqueous acetic acid) group, a 0.1 mg/kg reserpine group, a 0.3 mg/kg group, and a 1 mg/kg group based on the dose of reserpine (6 rats per group). A vehicle or reserpine was subcutaneously administered to the back of rats of the respective groups once a day for three days. The volume of the vehicle or reserpine was set to 1 ml per a weight of a rat of 1 kg for all groups. On the first, third, fifth, seventh, tenth, fourteenth, and twenty-first days after the final administration of the vehicle or reserpine, the muscle tenderness threshold and the cutaneous nociception threshold were measured for the respective rats.
Male Sprague-Dawley rats (Japan SLC, Hamamatsu, Japan) were used. Thirty rats were used for each drug. As shown in Reference Example 1, reserpine was repeatedly administered at 1 mg/kg once a day for 3 days for 24 rats, thereby causing the lowering of the muscle tenderness threshold and the cutaneous nociception threshold. The other 6 rats were not administered with reserpine and provided for the experiment as a healthy control.
The drug efficacy was evaluated 5 days after the final administration of reserpine for all groups.
In evaluating the respective test drugs (5-HT2C receptor agonists), the muscle tenderness threshold of the rats (24 reserpine-administered rats and 6 healthy rats) before the administration of the test drug was initially measured. The 24 reserpine-administered rats were assigned to 4 groups according to the dose of the test drug. For YM348 or a vehicle thereof, the muscle tenderness threshold was measured 30, 60, and 120 minutes after the administration. For lorcaserin or a vehicle thereof, the muscle tenderness threshold was measured 60, 120, and 240 minutes after the administration. For vabicaserin or a vehicle thereof, the muscle tenderness threshold was measured 30, 60, 120, and 240 minutes after the administration. […]

[3] = test system: disease animal model of fibromyalgia; assay: Effect of drug on reserpine-induced lowering of cutaneous nociception threshold; assay type: in vivo, Sprague-Dawley rats; settings: 5 days after final reserpine; up to a dose of 10 mg/kg
Method: The cutaneous nociception threshold was measured according to the method of Chaplan et al (Chaplan et al., J Neurosci Methods, 53, 55-63, 1994). The measurement was performed using a series of von Frey filaments differing in thickness, which made it possible to apply a constant pressure. The rats were adapted to a cage for measurement having a wire mesh bottom, and then von Frey filaments (0.42 g, 0.74 g, 1.2 g, 2.1 g, 3.5 g, 6.0 g, 9.3 g, and 15.8 g) were applied to the plantar surface of a right rear foot of the rat until the withdrawal response was caused in the right rear foot or until 6 seconds elapsed without the response. The von Frey filament was applied using an up and down method. […] The cutaneous nociception threshold at the respective points in time was calculated as a threshold (g) of a foot withdrawal response by using a calculation formula reported by Chaplan et al (Chaplan et al. described above).
In addition, 5 days after the final administration of reserpine, the effect of diclofenac which is a non-steroidal anti-inflammatory drug on the reserpine-induced lowering of the muscle tenderness threshold and the lowering of cutaneous nociception threshold was measured.

[4] = test system: patients with fibromyalgia; settings: cited from earlier work; for score of pain symptoms of patients with fibromyalgia compared to a placebo group: Non-Patent Documents 7 to 9; for effectiveness for treating patients with fibromyalgia: literature (Yunus 1989; Goldenberg 1986)
Male Sprague-Dawley rats = assay: Forced swimming test after repeated reserpine administration (immobility time); assay type: in vivo; settings: 1 mg/kg s.c. once a day for 3 days
Method: Male Sprague-Dawley rats (7-week old, Japan SLC, Hamamatsu, Japan) were used as animals. A forced swimming test was performed by modifying the method of Porsolt (1977) et al in the following manner. Soft wires including a magnet (a diameter of 1 mm and a length of 3 mm) were mounted on both the forelimbs of the animal, and the animals were caused to swim one by one in a cylindrical plastic water tank (a diameter of 20 cm and a height of 45 cm) filled with water (24±1° C.) up to 30 cm depth. […] Each forced swimming test includes a pretest session (15 minutes of swimming) and a test session (5 minutes of swimming) 24 hours after the pretest session, and the immobility time was measured in the test session. […] All of the measured values were indicated as an average±standard error. The statistical significant difference in the measured value at the respective test schedules between the reserpine-administered group and the vehicle-administered group was verified by a Student's t-test. A significance level (P) less than 5% was determined as statistical significance (P<0.05 was indicated as * in the drawings).

[5] = test system: Male and female Sprague-Dawley rats; assay: Influence of repeated reserpine administration on cutaneous nociception threshold (von Frey); assay type: in vivo; settings: for time after final administration for which cutaneous nociception threshold was statistically significantly lower than vehicle: 1 mg/kg group
Method: (§2) Male and female Sprague-Dawley rats (Japan SLC, Hamamatsu, Japan) were used.
as §1, with “The influence of reserpine on the muscle tenderness threshold and the threshold of cutaneous nociception was examined according to the following protocol. 24 rats were used for male and female rats respectively.” left out, “A vehicle or reserpine was subcutaneously administered to the back of rats of the respective groups once a day for three days. The volume of the vehicle or reserpine was set to 1 ml per a weight of a rat of 1 kg for all groups.” left out
(§3) All measured values were indicated as an average±standard error. The statistical significant difference in the measured value at the respective points in time between the reserpine-administered group and the vehicle-administered group was verified by two way ANOVA and a Bonferroni method. A significance level (P) less than 5% was determined as statistical significance (P<0.05 was indicated as * in the drawings).

[6] = test system: Male and female Sprague-Dawley rats; assay: Influence of repeated reserpine administration on muscle tenderness threshold; assay type: in vivo; settings: for time after final administration for which muscle tenderness threshold was statistically significantly lower than vehicle: 1 mg/kg group
Method: as §2
as §1, with “The influence of reserpine on the muscle tenderness threshold and the threshold of cutaneous nociception was examined according to the following protocol. 24 rats were used for male and female rats respectively.” left out, “A vehicle or reserpine was subcutaneously administered to the back of rats of the respective groups once a day for three days. The volume of the vehicle or reserpine was set to 1 ml per a weight of a rat of 1 kg for all groups.” left out
as §3

[7] = 0.1, 0.3, 1 mg/kg s.c. once a day for three days, male and female rats, two way ANOVA

SMILES: Cc1cc2c(cc1Cl)N(C(=O)Nc1ccc(Oc3cccnc3C)nc1)CC2 [SB242084]
- antagonistic action against the action of lorcaserin on muscle tenderness threshold ([1]; SB242084 0.1 and 1 mg/kg i.p. 15 min before lorcaserin 3 mg/kg oral, 60 min, Dunnett's test): statistically significant antagonistic action in a dose dependent manner

SMILES: CCc1cc2c(ccc3cnn(C[C@H](C)N)c32)o1 [YM348, (S)-2-(7-ethyl-1H-furo[2,3-g]indazol-1-yl)-1-methylethylamine]
- effect on the lowering of the muscle tenderness threshold induced by reserpine ([2]; 5 days after final reserpine (1 mg/kg s.c. x3 days), oral 0.03, 0.1, 0.3 mg/kg, 30, 60, 120 min after administration): restored the lowering of the muscle tenderness threshold induced by reserpine in a dose dependent manner
- statistical significance of the effect on muscle tenderness threshold vs vehicle ([2]; oral, at a dose of 0.1 mg/kg or 0.3 mg/kg): statistically significant

SMILES: O=C(O)Cc1ccccc1Nc1c(Cl)cccc1Cl [diclofenac]
- effect on the reserpine-induced lowering of cutaneous nociception threshold [3]: not restored
- effect on the reserpine-induced lowering of the muscle tenderness threshold ([2]; 5 days after final reserpine, up to a dose of 10 mg/kg): not restored

SMILES: CNCC[C@H](Oc1cccc2ccccc12)c1cccs1 [duloxetine]
- score of pain symptoms of patients with fibromyalgia compared to a placebo group [4]: statistically significantly reduces the score of pain symptoms

SMILES: CC(C)Cc1ccc(C(C)C(=O)O)cc1 (stereo not drawn) [ibuprofen]
- effectiveness for treating patients with fibromyalgia [4]: not significantly effective

SMILES: C[C@H]1CNCCc2ccc(Cl)cc21.Cl [lorcaserin, (1R)-8-chloro-1-methyl-2,3,4,5-tetrahydro-1H-3-benzazepine]
- effect on the lowering of the muscle tenderness threshold induced by reserpine vs vehicle group (v+v) ([1]; lorcaserin 3 mg/kg oral + 10% β cyclodextrin i.p., 60 min after administration, Student's t-test): statistically significantly restored the lowering of the muscle tenderness threshold induced by reserpine
- effect on the lowering of the muscle tenderness threshold induced by reserpine ([2]; 5 days after final reserpine, oral 0.3, 1, 3 mg/kg, 60, 120, 240 min after administration): restored the lowering of the muscle tenderness threshold induced by reserpine in a dose dependent manner
- statistical significance of the effect on muscle tenderness threshold vs vehicle ([2]; oral, at a dose of 1 mg/kg or 3 mg/kg): statistically significant

SMILES: COc1ccc2cc([C@H](C)C(=O)O)ccc2c1 [naproxen]
- effectiveness for treating patients with fibromyalgia [4]: not significantly effective

SMILES: CC(C)C[C@H](CN)CC(=O)O [pregabalin]
- score of pain symptoms of patients with fibromyalgia compared to a placebo group [4]: statistically significantly reduces the score of pain symptoms

SMILES: COC(=O)[C@H]1[C@H]2C[C@@H]3c4[nH]c5cc(OC)ccc5c4CCN3C[C@H]2C[C@@H](OC(=O)c2cc(OC)c(OC)c(OC)c2)[C@@H]1OC [reserpine]
- increase in the immobility time in forced swimming test (Male Sprague-Dawley rats; first day after final administration (P=0.625)): not confirmed
- increase in the immobility time in forced swimming test (Male Sprague-Dawley rats; third, fifth, seventh and fourteenth days after final administration (P=0.0007, 0.004, <0.0001, 0.0008)): significant increase in the immobility time
- time after final administration for which cutaneous nociception threshold was statistically significantly lower than vehicle ([5]; female rats): 14 days
- time after final administration for which cutaneous nociception threshold was statistically significantly lower than vehicle ([5]; male rats): 21 days
- influence on cutaneous nociception threshold ([5]; 1 mg/kg reserpine group): markedly lowered
- influence on cutaneous nociception threshold [5, 7]: significantly lowered the cutaneous nociception threshold
- time after final administration for which muscle tenderness threshold was statistically significantly lower than vehicle ([6]; female rats): 7 days
- time after final administration for which muscle tenderness threshold was statistically significantly lower than vehicle ([6]; male rats): 10 days
- influence on muscle tenderness threshold ([6]; 1 mg/kg reserpine group): markedly lowered
- influence on muscle tenderness threshold [6, 7]: significantly lowered the muscle tenderness threshold

SMILES: Cl.c1cc2c3c(c1)[C@H]1CCC[C@H]1CN3CCNC2 [vabicaserin, (−)-(9aR,12aS)-4,5,6,7,9,9a,10,11,12,12a-decahydrocyclopenta[c][1,4]diazepino[6,7,1-ij]quinoline]
- statistical significance of the effect on muscle tenderness threshold vs vehicle ([2]; dorsal subcutaneous, at a dose of 1 mg/kg or 3 mg/kg): statistically significant
- effect on the lowering of the muscle tenderness threshold induced by reserpine ([2]; 5 days after final reserpine, dorsal subcutaneous 0.3, 1, 3 mg/kg, 30, 60, 120, 240 min after administration): restored the lowering of the muscle tenderness threshold induced by reserpine in a dose dependent manner

Reference: patent publication US20120253036A1, “AGENT FOR TREATING FIBROMYALGIA” (priority 2009, published 2012)
